Results taken from patent publication EP0068239A2, “Sulfamoylbenzoic acid derivatives and pharmaceutical compositions comprising same” (MITSUI TOATSU CHEMICALS, Inc., priority 1981, dated 1983).

Columns and labels:
[1] = test system: rats with DOCA/saline-induced hypertension; experiment: Hypotensive activity in rats with DOCA/saline-induced hypertension (systolic pressure measured indirectly through the caudal artery); type: in vivo, male Wistar rats; conditions: 30 mg/kg orally once a day for 5 days, versus initial value; for Percent change of systolic pressure Day 1: measured 4 hour after administration on day 1; for Percent change of systolic pressure Day 3: measured 4 hour after administration on day 3; for Percent change of systolic pressure Day 5: measured 4 hour after administration on day 5
Description: Evaluation Test 1 (Hypotensive activity in rats with DOCA/saline-induced hypertension]
Rats with DOCA/saline-induced hypertension were prepared according to the method described in an article by H. Selye, C.E. Hall and E.M. Rowly tCanadian Medical Association Journal, Vol. 49, p. 88, 1943). More specifically, 5-weeks-old male Wistar rats, weighing 100 to 120 g, were placed under anesthesia with ether and their left kidney was excised. Thereafter, they were allowed to take saline (a 1% aqueous solution of sodium chloride) instead of water. In addition, 10 mg/kg of deoxycorticosterone acetate was subcutaneously administered once a week. After 4-6 weeks, these rats developed hypertension.
Blood pressure was measured according to the method described in an article by M. Gerold and H. Tschirky (Arzneimittelforschung, Vol. 18, p. 1285, 1968). More specifically, using a Model 8002 or 8005 BP Recorder (W+W Electronic Co.), the systolic pressure of each rat was indirectly measured through the caudal artery. The rats were placed in a high-temperature environment (45±2°C) prior to every measurement. Among the rats (aged 15-17 weeks) with DOCA/saline-induced hypertension, only those showing a systolic pressure of 170 mmHg or above were used in groups of 3 or 4.
A compound to be tested was suspended in a 0.2% solution of carboxymethyl cellulose and administered orally to the rats in a dose of 30 mg/kg. This administration was performed once a day and continued for 5 days. Blood pressure measurements were made before the administration of the compound and 4 hour after the administration on days 1, 3, and 5.

anesthetized dogs = experiment: Diuretic effect in anesthetized dogs (urine collection via ureter cannulae); type: in vivo, Adult mongrel dogs; conditions: for ED100: 10 min, dose at which urine collected for 10 minutes after administration is twice the amount collected for 10 minutes before; for diuretic effect: high dose of 2 mg/kg
Description: Evaluation Test 2 [Diuretic effect in anesthetized dogs3
Adult mongrel dogs of either sex were used in this experiment. Each dog was anesthetized by intravenous administration of 30 mg/kg of pentobarbital sodium. Thereafter, a midline incision was made in the lower abdominal region and polyethylene cannulae for the collection of urine were inserted into the right and left ureters. In addition, a polyethylene cannula was inserted into the left femoral vein, through which 50 ml of physiological saline was administered. Thirty minutes after that, physiological saline was continuously infused at a rate of 1.5 ml/min. The experiment was started after the rate of urine excretion became constant. A compound to be tested was dissolved in dimethylformamide and administered intravenously by way of the right femoral vein, and blood pressure was surgically monitored by way of the right femoral artery.
The ED100 of the compound was defined as the dose at which the amount of urine collected for 10 minutes after the administration of the compound was equal to twice the amount of urine collected for 10 minutes before the administration.

[2] = Canis lupus familiaris, intravenous

Structure (SMILES): CC1Cc2ccccc2N1NC(=O)c1ccc(Cl)c(S(N)(=O)=O)c1 (stereo not shown) [Indapamide, N-(3-sulfamoyl-4-chlorobenzamido)-2-methylindoline, reference compound]
- Percent change of systolic pressure Day 1 [1]: -13%
- Percent change of systolic pressure Day 3 [1]: -20%
- Percent change of systolic pressure Day 5 [1]: -22%
- ED100 (anesthetized dogs; [2]): 0.2 mg/kg
- minimal effective dose (anesthetized dogs; Canis lupus familiaris, intravenous, anesthetized dogs, read-out: dose at which the compound began to exert a diuretic effect): 0.05 mg/kg
- increase of urine excretion (factor) (anesthetized dogs; intravenous dose of 0.2 mg/kg): approximately 2

Structure (SMILES): CC1Cc2ccccc2N1NC(=O)c1cc(S(N)(=O)=O)c(Cl)cc1Cl (stereo not shown) [Example 1, N-(2,4-dichloro-5-sulfamoylbenzamido)-2-methylindoline]
- Percent change of systolic pressure Day 1 [1]: -12%
- Percent change of systolic pressure Day 3 [1]: -25%
- Percent change of systolic pressure Day 5 [1]: -28%
- ED100 (anesthetized dogs; [2]): > 2 mg/kg
- diuretic effect (anesthetized dogs; intravenous): little diuretic effect

Structure (SMILES): CC1Cc2ccccc2N1NC(=O)c1cc(S(N)(=O)=O)c(Cl)cc1Br (stereo not shown) [Example 2, N-(2-bromo-4-chloro-5-sulfamoylbenzamido)-2-methylindoline]
- Percent change of systolic pressure Day 1 [1]: -12%
- Percent change of systolic pressure Day 3 [1]: -24%
- Percent change of systolic pressure Day 5 [1]: -25%
- ED100 (anesthetized dogs; [2]): > 2 mg/kg
- diuretic effect (anesthetized dogs; intravenous): little diuretic effect
